Experimental data reported in patent US10323044B2, “Crystal of imidazo-oxazine, pharmaceutical composition containing said crystal, and method for producing said crystal” (TAIHO PHARMACEUTICAL CO., LTD., priority 2015, dated 2019).

Test: Solid stability test (storage stability; powder X-ray diffraction and HPLC analog amount)
Assay type: physicochemical
Conditions: 40° C. (hermetically sealed), six months, brown glass bottle
Method: Powder X-ray diffraction was performed by lightly pulverizing an appropriate amount of a test substance using an agate mortar as necessary, and measuring the test substance in accordance with the following test conditions.
The storage stability of crystal I of the imidazooxazine compound obtained in accordance with Example 1 was tested after six months of storage at 40° C.
Storage condition: 40° C. (hermetically sealed)
Measurement point: Six months
Container: Brown glass bottle
The powder X-ray diffraction of the sample after storage was measured using the method described above. Alternations in analog amount were analyzed by HPLC according to the following manner.
Method for preparing a sample solution: the sample was dissolved in 50% acetonitrile so that the concentration of the sample became 0.5 mg/mL.
Column: Acentis express C18, 4.6×150 mm, 2.7 μm,
Column temperature: 40° C.
Column flow rate: 1.5 mL/min
Mobile phase: A; 0.1% phosphate, B; acetonitrile

changes in powder X-ray diffraction pattern after storage: not observed
amount of analogs (HPLC) after storage (HPLC UV 210 nm): not increased
Compound: C[C@]1(O)C[C@@](N)(c2ccc(-c3nc4n(c3-c3ccccc3)COc3ccncc3-4)cc2)C1 [crystal I, trans-3-amino-1-methyl-3-(4-(3-phenyl-5H-imidazo[1,2-c]pyrido[3,4-e][1,3]oxazin-2-yl)phenyl)cyclobutanol]
